Measured values published in patent US12338220B2, “Antiviral pyrazolopiridinone compounds” (Novartis AG, priority 2019, dated 2025).
Like-named read-outs stand apart in the source and are kept apart here.

Tests used:
CMV-polymerase = CMV-polymerase (Human cytomegalovirus (strain AD169) (HHV-5) (Human herpesvirus 5), UniProt P08546); test: biochemical
CMV = test: microbe, parasite or virus in culture; format: cell-based; conditions: Human betaherpesvirus 5, 72 h, read-out: CMV-Luc Cellular EC50, NN-NHDF cells, MOI 1, 72 hrs
[1] = read-out: CMV-polymerase Biochemical IC50
[2] = CMV-polymerase Biochemical IC50

SMILES	IC50 (CMV-polymerase; [1]) [nM]	EC50 (CMV) [nM]	IC50 (CMV-polymerase; [2]) [nM]
Cn1nc(C(=O)NCc2ccc(C#N)cc2)c2c1C(=O)N(CC1(S(=O)(=O)C(C)(C)COC(F)F)CC1)CC2 [Example 58, N-(4-Cyanobenzyl)-6-((1-((1-(difluoromethoxy)-2-methylpropan-2-yl)sulfonyl)cyclopropyl)methyl)-1-methyl-7-oxo-4,5,6,7-tetrahydro-1H-pyrazolo[3,4-c]pyridine-3-carboxamide]	1	25	
Cn1nc(C(=O)NCc2ccc(C#N)cc2)c2c1C(=O)N(CC1(S(=O)(=O)C(C)(C)C#N)CC1)CC2 [Example 59, N-(4-Cyanobenzyl)-6-((1-((2-cyanopropan-2-yl)sulfonyl)cyclopropyl)methyl)-1-methyl-7-oxo-4,5,6,7-tetrahydro-1H-pyrazolo[3,4-c]pyridine-3-carboxamide]		33	1
Cn1nc(C(=O)NCc2ccc(C#N)cc2)c2c1C(=O)N(CC1(S(=O)(=O)C(C)(C)CN3CC(F)C3)CC1)CC2 [Example 60, N-(4-Cyanobenzyl)-6-((1-((1-(3-fluoroazetidin-1-yl)-2-methylpropan-2-yl)sulfonyl)cyclopropyl)methyl)-1-methyl-7-oxo-4,5,6,7-tetrahydro-1H-pyrazolo[3,4-c]pyridine-3-carboxamide]		62	2
Cn1nc(C(=O)NCc2ccc(C#N)cc2)c2c1C(=O)N(CC1(S(=O)(=O)C(C)(C)CN3CCOCC3)CC1)CC2 [Example 61, N-(4-Cyanobenzyl)-1-methyl-6-((1-((2-methyl-1-morpholinopropan-2-yl)sulfonyl)cyclopropyl)methyl)-7-oxo-4,5,6,7-tetrahydro-1H-pyrazolo[3,4-c]pyridine-3-carboxamide]	6	145	
CO[C@@H]1CCN(CC(C)(C)S(=O)(=O)C2(CN3CCc4c(C(=O)NCc5ccc(C#N)cc5)nn(C)c4C3=O)CC2)C1 [Example 62, (R)-N-(4-cyanobenzyl)-6-((1-((1-(3-methoxypyrrolidin-1-yl)-2-methylpropan-2-yl)sulfonyl)cyclopropyl)methyl)-1-methyl-7-oxo-4,5,6,7-tetrahydro-1H-pyrazolo[3,4-c]pyridine-3-carboxamide]	4	136	
Cn1nc(C(=O)NCc2ccc(C#N)cc2)c2c1C(=O)N(CC1(S(=O)(=O)C(C)(C)CN3CC4CC(C3)O4)CC1)CC2 [Example 63, 6-((1-((1-(6-Oxa-3-azabicyclo[3.1.1]heptan-3-yl)-2-methylpropan-2-yl)sulfonyl)cyclopropyl)methyl)-N-(4-cyanobenzyl)-1-methyl-7-oxo-4,5,6,7-tetrahydro-1H-pyrazolo[3,4-c]pyridine-3-carboxamide]	6	220	
Cn1nc(C(=O)NCc2ccc(C#N)cc2)c2c1C(=O)N(CC1(S(=O)(=O)C(C)(C)CN3CC4CC3CO4)CC1)CC2 (centres unmarked) [Example 64, 6-((1-((1-(2-Oxa-5-azabicyclo[2.2.1]heptan-5-yl)-2-methylpropan-2-yl)sulfonyl)cyclopropyl)methyl)-N-(4-cyanobenzyl)-1-methyl-7-oxo-4,5,6,7-tetrahydro-1H-pyrazolo[3,4-c]pyridine-3-carboxamide]	4	106	
Cn1nc(C(=O)NCc2ccc(C#N)cc2)c2c1C(=O)N(CC1(S(=O)(=O)C(C)(C)CN3CC(O)C3)CC1)CC2 [Example 65, N-(4-Cyanobenzyl)-6-((1-((1-(3-hydroxyazetidin-1-yl)-2-methylpropan-2-yl)sulfonyl)cyclopropyl)methyl)-1-methyl-7-oxo-4,5,6,7-tetrahydro-1H-pyrazolo[3,4-c]pyridine-3-carboxamide]	2	50	
COC1CN(CC(C)(C)S(=O)(=O)C2(CN3CCc4c(C(=O)NCc5ccc(C#N)cc5)nn(C)c4C3=O)CC2)C1 [Example 66, N-(4-Cyanobenzyl)-6-((1-((1-(3-methoxyazetidin-1-yl)-2-methylpropan-2-yl)sulfonyl)cyclopropyl)methyl)-1-methyl-7-oxo-4,5,6,7-tetrahydro-1H-pyrazolo[3,4-c]pyridine-3-carboxamide]	2	88	
Cn1nc(C(=O)NCc2ccc(C#N)cc2)c2c1C(=O)N(CC1(S(=O)(=O)C(C)(C)CN3CC4(COC4)C3)CC1)CC2 [Example 67, N-(4-Cyanobenzyl)-1-methyl-6-((1-((2-methyl-1-(2-oxa-6-azaspiro[3.3]heptan-6-yl)propan-2-yl)sulfonyl)cyclopropyl)methyl)-7-oxo-4,5,6,7-tetrahydro-1H-pyrazolo[3,4-c]pyridine-3-carboxamide]	2	82	
Cn1nc(C(=O)NCc2ccc(C#N)cc2)c2c1C(=O)N(CC1(S(=O)(=O)C(C)(C)CN3CCC(O)C3)CC1)CC2 (centres unmarked) [Example 68, N-(4-Cyanobenzyl)-6-((1-((1-(3-hydroxypyrrolidin-1-yl)-2-methylpropan-2-yl)sulfonyl)cyclopropyl)methyl)-1-methyl-7-oxo-4,5,6,7-tetrahydro-1H-pyrazolo[3,4-c]pyridine-3-carboxamide]	1	115	
Cn1nc(C(=O)NCc2ccc(C#N)cc2)c2c1C(=O)N(CC1(S(=O)(=O)C(C)(C)CNCCO)CC1)CC2 [Example 69, N-(4-Cyanobenzyl)-6-((1-((1-((2-hydroxyethyl)amino)-2-methylpropan-2-yl)sulfonyl)cyclopropyl)methyl)-1-methyl-7-ox0-4,5,6,7-tetrahydro-1H-pyrazolo[3,4-c]pyridine-3-carboxamide]	1	57	
Cn1nc(C(=O)NCc2ccc(C#N)cc2)c2c1C(=O)N(CC1(S(=O)(=O)C(C)(C)CN)CC1)CC2 [Example 70, 6-((1-((1-Amino-2-methylpropan-2-yl)sulfonyl)cyclopropyl)methyl)-N-(4-cyanobenzyl)-1-methyl-7-oxo-4,5,6,7-tetrahydro-1H-pyrazolo[3,4-c]pyridine-3-carboxamide]		61	3
COC(=O)NCC(C)(C)S(=O)(=O)C1(CN2CCc3c(C(=O)NCc4ccc(C#N)cc4)nn(C)c3C2=O)CC1 [Example 73, Methyl (2-((1-((3-((4-cyanobenzyl)carbamoyl)-1-methyl-7-oxo-1,4,5,7-tetrahydro-6H-pyrazolo[3,4-c]pyridin-6-yl)methyl)cyclopropyl)sulfonyl)-2-methylpropyl)carbamate]	2	53	
Cn1nc(C(=O)NCc2ccc(C#N)cc2)c2c1C(=O)N(CC1(S(=O)(=O)C(C)(C)CNC(=O)CN)CC1)CC2 [Example 74, 6-((1-((1-(2-Aminoacetamido)-2-methylpropan-2-yl)sulfonyl)cyclopropyl)methyl)-N-(4-cyanobenzyl)-1-methyl-7-oxo-4,5,6,7-tetrahydro-1H-pyrazolo[3,4-c]pyridine-3-carboxamide]	3	148	
C[C@@H](N)C(=O)NCC(C)(C)S(=O)(=O)C1(CN2CCc3c(C(=O)NCc4ccc(C#N)cc4)nn(C)c3C2=O)CC1 [Example 75, (R)-6-((1-((1-(2-Aminopropanamido)-2-methylpropan-2-yl)sulfonyl)cyclopropyl)methyl)-N-(4-cyanobenzyl)-1-methyl-7-oxo-4,5,6,7-tetrahydro-1H-pyrazolo[3,4-c]pyridine-3-carboxamide]	7	47	
C[C@H](N)C(=O)NCC(C)(C)S(=O)(=O)C1(CN2CCc3c(C(=O)NCc4ccc(C#N)cc4)nn(C)c3C2=O)CC1 [Example 76, (S)-6-((1-((1-(2-Aminopropanamido)-2-methylpropan-2-yl)sulfonyl)cyclopropyl)methyl)-N-(4-cyanobenzyl)-1-methyl-7-oxo-4,5,6,7-tetrahydro-1H-pyrazolo[3,4-c]pyridine-3-carboxamide]	10	84	
Cn1nc(C(=O)NCc2ccc(C#N)cc2)c2c1C(=O)N(CC1(S(=O)(=O)C(C)(C)CNC(=O)C(C)(C)N)CC1)CC2 [Example 77, 6-((1-((1-(2-Amino-2-methylpropanamido)-2-methylpropan-2-yl)sulfonyl)cyclopropyl)methyl)-N-(4-cyanobenzyl)-1-methyl-7-oxo-4,5,6,7-tetrahydro-1H-pyrazolo[3,4-c]pyridine-3-carboxamide]	12	115	
CN(C)CC(=O)NCC(C)(C)S(=O)(=O)C1(CN2CCc3c(C(=O)NCc4ccc(C#N)cc4)nn(C)c3C2=O)CC1 [Example 78, N-(4-Cyanobenzyl)-6-((1-((1-(2-(dimethylamino)acetamido)-2-methylpropan-2-yl)sulfonyl)cyclopropyl)methyl)-1-methyl-7-oxo-4,5,6,7-tetrahydro-1H-pyrazolo[3,4-c]pyridine-3-carboxamide]	26	112	
Cn1nc(C(=O)NCc2ccc(C#N)cc2)c2c1C(=O)N(CC1(S(=O)(=O)C(C)(C)COC(F)(F)CO)CC1)CC2 [Example 84, N-(4-cyanobenzyl)-6-((1-((1-(1,1-difluoro-2-hydroxyethoxy)-2-methylpropan-2-yl)sulfonyl)cyclopropyl)methyl)-1-methyl-7-oxo-4,5,6,7-tetrahydro-1H-pyrazolo[3,4-c]pyridine-3-carboxamide]		51	4
Cn1nc(C(=O)NCc2ccc(C#N)cc2)c2c1C(=O)N(CC1(S(=O)(=O)C(C)(C)COC(F)(F)CN)CC1)CC2 [Example 85, 6-((1-((1-(2-Amino-1,1-difluoroethoxy)-2-methylpropan-2-yl)sulfonyl)cyclopropyl)methyl)-N-(4-cyanobenzyl)-1-methyl-7-oxo-4,5,6,7-tetrahydro-1H-pyrazolo[3,4-c]pyridine-3-carboxamide]		50	3
Cn1nc(C(=O)NCc2ccc(C#N)cc2)c2c1C(=O)N(CC1(S(=O)(=O)C(C)(C)COCC(C)(C)O)CC1)CC2 [Example 86, N-(4-Cyanobenzyl)-6-((1-((1-(2-hydroxy-2-methylpropoxy)-2-methylpropan-2-yl)sulfonyl)cyclopropyl)methyl)-1-methyl-7-oxo-4,5,6,7-tetrahydro-1H-pyrazolo[3,4-c]pyridine-3-carboxamide]		145	18
